Reference: patent US20150125889A1, “IN VITRO DETECTION OF MICROORGANISMS WITH AZOREDUCTASE ACTIVITY” (BIOMÉRIEUX, priority 2012, published 2015)

Assays:
Assay in all cases: Reduction of azo substrates over 24 hours at 35° C., microtitration plate (Example 1)
Assay type in all cases: cell-based
Acinetobacter baumanii = tested on: Acinetobacter baumanii; set-up: key to RED (substrate reduced or not): RED indicates whether the substrate is reduced (Y) or not (N); RED indicates whether the substrate is reduced (Y) or not (N); key to Decol (substrate decolourized, decrease in absorbance) / Fluo (fluorescence multiplied by 2 relative to substrate-free control) / Co (growth, absorbance at 660 nm): The symbol “+” means good growth/decolourization/significant increase in fluorescence; The symbol “+/−” means difficult growth; The symbol “−” means that there is no growth/decolourization/significant increase in fluorescence; details: A. baumannii, substrate 35 mg/l
Protocol: (§1) Reduction of the “azo” function of the substrates listed in Table I by the species listed in Table II, each species being represented by a strain, is tested in a microtitration plate.
(§2) The reaction medium consists of: • Trypcase soya broth • Substrate 35 mg/l • 0.5 MacFarland inoculum
(§3) The reduction of the substrate and the growth of the microorganisms are monitored using an Infinite® M200 Tecan microplate reader at 35° C. over 24 hours.
(§4) The growth is monitored by the absorbance at 660 nm and the reduction of the substrates by absorbance and fluorescence at the specific wavelengths indicated in Table III.
(§5) The substrate is considered as reduced by the microorganisms when the substrate is decolourized (monitored by the decrease in absorbance) (Decol) and/or when the fluorescence of the substrate is multiplied by 2 relative to the base fluorescence of a substrate-free control (Fluo). The growth is indicated by Co. The symbol “+” means good growth/decolourization/significant increase in fluorescence. The symbol “+/−” means difficult growth. The symbol “−” means that there is no growth/decolourization/significant increase in fluorescence. RED indicates whether the substrate is reduced (Y) or not (N).

Enterococcus faecalis = tested on: Enterococcus faecalis; set-up: key to RED (substrate reduced or not): RED indicates whether the substrate is reduced (Y) or not (N); RED indicates whether the substrate is reduced (Y) or not (N); key to Decol (substrate decolourized, decrease in absorbance) / Fluo (fluorescence multiplied by 2 relative to substrate-free control) / Co (growth, absorbance at 660 nm): The symbol “+” means good growth/decolourization/significant increase in fluorescence; The symbol “+/−” means difficult growth; The symbol “−” means that there is no growth/decolourization/significant increase in fluorescence; details: E. faecalis, substrate 35 mg/l
Protocol: as §1, §2, §3, §4, §5

Staphylococcus aureus = tested on: Staphylococcus aureus; set-up: key to RED (substrate reduced or not): RED indicates whether the substrate is reduced (Y) or not (N); RED indicates whether the substrate is reduced (Y) or not (N); key to Co (growth, absorbance at 660 nm) / Decol (substrate decolourized, decrease in absorbance) / Fluo (fluorescence multiplied by 2 relative to substrate-free control): The symbol “+” means good growth/decolourization/significant increase in fluorescence; The symbol “+/−” means difficult growth; The symbol “−” means that there is no growth/decolourization/significant increase in fluorescence; details: S. aureus, substrate 35 mg/l
Protocol: as §1, §2, §3, §4, §5

Geotrichum candidum = tested on: Geotrichum candidum; set-up: key to RED (substrate reduced or not): RED indicates whether the substrate is reduced (Y) or not (N); RED indicates whether the substrate is reduced (Y) or not (N); key to Co (growth, absorbance at 660 nm) / Decol (substrate decolourized, decrease in absorbance) / Fluo (fluorescence multiplied by 2 relative to substrate-free control): The symbol “+” means good growth/decolourization/significant increase in fluorescence; The symbol “+/−” means difficult growth; The symbol “−” means that there is no growth/decolourization/significant increase in fluorescence; details: G. candidum, substrate 35 mg/l
Protocol: as §1, §2, §3, §4, §5

Cronobacter muytjensii = tested on: Cronobacter muytjensii; set-up: key to RED (substrate reduced or not): RED indicates whether the substrate is reduced (Y) or not (N); RED indicates whether the substrate is reduced (Y) or not (N); key to Co (growth, absorbance at 660 nm) / Decol (substrate decolourized, decrease in absorbance) / Fluo (fluorescence multiplied by 2 relative to substrate-free control): The symbol “+” means good growth/decolourization/significant increase in fluorescence; The symbol “+/−” means difficult growth; The symbol “−” means that there is no growth/decolourization/significant increase in fluorescence; details: E. muytjensii, substrate 35 mg/l
Protocol: as §1, §2, §3, §4, §5

Candida albicans = tested on: Candida albicans; set-up: key to RED (substrate reduced or not): RED indicates whether the substrate is reduced (Y) or not (N); RED indicates whether the substrate is reduced (Y) or not (N); key to Co (growth, absorbance at 660 nm) / Decol (substrate decolourized, decrease in absorbance) / Fluo (fluorescence multiplied by 2 relative to substrate-free control): The symbol “+” means good growth/decolourization/significant increase in fluorescence; The symbol “+/−” means difficult growth; The symbol “−” means that there is no growth/decolourization/significant increase in fluorescence; details: substrate 35 mg/l
Protocol: as §1, §2, §3, §4, §5

Kocuria rosea = tested on: Kocuria rosea; set-up: key to RED (substrate reduced or not): RED indicates whether the substrate is reduced (Y) or not (N); RED indicates whether the substrate is reduced (Y) or not (N); key to Co (growth, absorbance at 660 nm) / Decol (substrate decolourized, decrease in absorbance) / Fluo (fluorescence multiplied by 2 relative to substrate-free control): The symbol “+” means good growth/decolourization/significant increase in fluorescence; The symbol “+/−” means difficult growth; The symbol “−” means that there is no growth/decolourization/significant increase in fluorescence; details: K. rosea, substrate 35 mg/l
Protocol: as §1, §2, §3, §4, §5

Pseudomonas aeruginosa = tested on: Pseudomonas aeruginosa; set-up: key to RED (substrate reduced or not): RED indicates whether the substrate is reduced (Y) or not (N); RED indicates whether the substrate is reduced (Y) or not (N); key to Co (growth, absorbance at 660 nm) / Decol (substrate decolourized, decrease in absorbance) / Fluo (fluorescence multiplied by 2 relative to substrate-free control): The symbol “+” means good growth/decolourization/significant increase in fluorescence; The symbol “+/−” means difficult growth; The symbol “−” means that there is no growth/decolourization/significant increase in fluorescence; details: P. aeruginosa, substrate 35 mg/l
Protocol: as §1, §2, §3, §4, §5

[1] = tested on: Staphylococcus epidermidis; set-up: key to RED (substrate reduced or not): RED indicates whether the substrate is reduced (Y) or not (N); RED indicates whether the substrate is reduced (Y) or not (N); key to Co (growth, absorbance at 660 nm) / Decol (substrate decolourized, decrease in absorbance) / Fluo (fluorescence multiplied by 2 relative to substrate-free control): The symbol “+” means good growth/decolourization/significant increase in fluorescence; The symbol “+/−” means difficult growth; The symbol “−” means that there is no growth/decolourization/significant increase in fluorescence; details: S. epidermidis, substrate 35 mg/l
Protocol: as §1, §2, §3, §4, §5

Escherichia coli = tested on: Escherichia coli; set-up: key to RED (substrate reduced or not): RED indicates whether the substrate is reduced (Y) or not (N); RED indicates whether the substrate is reduced (Y) or not (N); key to Co (growth, absorbance at 660 nm) / Decol (substrate decolourized, decrease in absorbance) / Fluo (fluorescence multiplied by 2 relative to substrate-free control): The symbol “+” means good growth/decolourization/significant increase in fluorescence; The symbol “+/−” means difficult growth; The symbol “−” means that there is no growth/decolourization/significant increase in fluorescence; details: E. coli, substrate 35 mg/l
Protocol: as §1, §2, §3, §4, §5

| SMILES | Co (growth, absorbance at 660 nm) (Acinetobacter baumanii) | Decol (substrate decolourized, decrease in absorbance) (Acinetobacter baumanii) | Fluo (fluorescence multiplied by 2 relative to substrate-free control) (Acinetobacter baumanii) | RED (substrate reduced or not) (Acinetobacter baumanii) | Co (growth, absorbance at 660 nm) (Enterococcus faecalis) | Decol (substrate decolourized, decrease in absorbance) (Enterococcus faecalis) | Fluo (fluorescence multiplied by 2 relative to substrate-free control) (Enterococcus faecalis) | RED (substrate reduced or not) (Enterococcus faecalis) | Co (growth, absorbance at 660 nm) (Staphylococcus aureus) | Decol (substrate decolourized, decrease in absorbance) (Staphylococcus aureus) | Fluo (fluorescence multiplied by 2 relative to substrate-free control) (Staphylococcus aureus) | RED (substrate reduced or not) (Staphylococcus aureus) | Co (growth, absorbance at 660 nm) (Geotrichum candidum) | Decol (substrate decolourized, decrease in absorbance) (Geotrichum candidum) | Fluo (fluorescence multiplied by 2 relative to substrate-free control) (Geotrichum candidum) | RED (substrate reduced or not) (Geotrichum candidum) | Co (growth, absorbance at 660 nm) (Cronobacter muytjensii) | Decol (substrate decolourized, decrease in absorbance) (Cronobacter muytjensii) | Fluo (fluorescence multiplied by 2 relative to substrate-free control) (Cronobacter muytjensii) | RED (substrate reduced or not) (Cronobacter muytjensii) | also measured |
| --- | --- | --- | --- | --- | --- | --- | --- | --- | --- | --- | --- | --- | --- | --- | --- | --- | --- | --- | --- | --- | --- |
| O=C(O)c1ccccc1/N=N/c1cc(Cl)c(O)c(Cl)c1 [2-(4-Hydroxy-3,5-dichlorophenylazo)benzoic acid] | + | + | + | Y | + | + | + | Y | + | + | + | Y | + | + | + | Y | + | + | + | Y | Co (growth, absorbance at 660 nm) (Candida albicans): +; Decol (substrate decolourized, decrease in absorbance) (Candida albicans): −; Fluo (fluorescence multiplied by 2 relative to substrate-free control) (Candida albicans): −; RED (substrate reduced or not) (Candida albicans): N; Co (growth, absorbance at 660 nm) (Kocuria rosea): −; Decol (substrate decolourized, decrease in absorbance) (Kocuria rosea): −; Fluo (fluorescence multiplied by 2 relative to substrate-free control) (Kocuria rosea): −; Co (growth, absorbance at 660 nm) (Pseudomonas aeruginosa): +; Decol (substrate decolourized, decrease in absorbance) (Pseudomonas aeruginosa): −; Fluo (fluorescence multiplied by 2 relative to substrate-free control) (Pseudomonas aeruginosa): +; RED (substrate reduced or not) (Pseudomonas aeruginosa): Y; Co (growth, absorbance at 660 nm) [1]: +; Decol (substrate decolourized, decrease in absorbance) [1]: +; Fluo (fluorescence multiplied by 2 relative to substrate-free control) [1]: +; RED (substrate reduced or not) [1]: Y; Co (growth, absorbance at 660 nm) (Escherichia coli): +; Decol (substrate decolourized, decrease in absorbance) (Escherichia coli): +; Fluo (fluorescence multiplied by 2 relative to substrate-free control) (Escherichia coli): +; RED (substrate reduced or not) (Escherichia coli): Y |
| CC(=O)Oc1ccc(/N=N/c2ccccc2C(=O)O)cc1 [2-(4-acetoxyphenylazo)benzoic acid, 2-(4-Acetoxyphenylazo)benzoic acid] | + | + | + | Y | + | + | + | Y | + | + | + | Y | + | + | + | Y | + | + | + | Y | Co (growth, absorbance at 660 nm) (Candida albicans): +; Decol (substrate decolourized, decrease in absorbance) (Candida albicans): −; Fluo (fluorescence multiplied by 2 relative to substrate-free control) (Candida albicans): −; RED (substrate reduced or not) (Candida albicans): N; Co (growth, absorbance at 660 nm) (Kocuria rosea): −; Decol (substrate decolourized, decrease in absorbance) (Kocuria rosea): −; Fluo (fluorescence multiplied by 2 relative to substrate-free control) (Kocuria rosea): −; Co (growth, absorbance at 660 nm) (Pseudomonas aeruginosa): +; Decol (substrate decolourized, decrease in absorbance) (Pseudomonas aeruginosa): −; Fluo (fluorescence multiplied by 2 relative to substrate-free control) (Pseudomonas aeruginosa): −; RED (substrate reduced or not) (Pseudomonas aeruginosa): N; Co (growth, absorbance at 660 nm) [1]: +; Decol (substrate decolourized, decrease in absorbance) [1]: +; Fluo (fluorescence multiplied by 2 relative to substrate-free control) [1]: +; RED (substrate reduced or not) [1]: Y; Co (growth, absorbance at 660 nm) (Escherichia coli): +; Decol (substrate decolourized, decrease in absorbance) (Escherichia coli): +; Fluo (fluorescence multiplied by 2 relative to substrate-free control) (Escherichia coli): +; RED (substrate reduced or not) (Escherichia coli): Y |
